Reference: US8889704B2 (Array BioPharma Inc., priority 2011, dated 2014)
Where a name gives a salt, the structure may show the parent alone.

Key:
Type in all cases: biochemical
[1] = target: PIM-1 (Homo sapiens, UniProt P11309); experiment: Enzyme PIM-1 Assay ([33P]ATP incorporation into PIM2tide, filter plate); conditions: averaged IC50; 35 μM ATP, 7.5 μM PIM2tide, 0.25 nM PIM-1, 60 min at 22° C.
Summary of the method: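 Ten-point, 3-fold dilution series (10 μM top, 2% DMSO final) tested for inhibition of 33P transfer from 35 μM ATP to 7.5 μM PIM2tide by 0.25 nM PIM-1. Reaction 60 min, 22 °C, pH 7.4 MOPS/MgCl2 buffer; phosphocellulose capture, scintillation counting, IC50 where fitted POC equals 50.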

[2] = target: T1, GST-tagged recombinant full-length human Pim-2 (Homo sapiens, UniProt Q9P1W9); experiment: PIM-2 Assay (as Example A); conditions: averaged IC50; 4 μM ATP, 1.0 μM PIM2tide, 1.5 nM Pim-2
T1 construct: GST-tagged recombinant full-length human Pim-2; GST
T1 sequence (Q9P1W9 whole entry): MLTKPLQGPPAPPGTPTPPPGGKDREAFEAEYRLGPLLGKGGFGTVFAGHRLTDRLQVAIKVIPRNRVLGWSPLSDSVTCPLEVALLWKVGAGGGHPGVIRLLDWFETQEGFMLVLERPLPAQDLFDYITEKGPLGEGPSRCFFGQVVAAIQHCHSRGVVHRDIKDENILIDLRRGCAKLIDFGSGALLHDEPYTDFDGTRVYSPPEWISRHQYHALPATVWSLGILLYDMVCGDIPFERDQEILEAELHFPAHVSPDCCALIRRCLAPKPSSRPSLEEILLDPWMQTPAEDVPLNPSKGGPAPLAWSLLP
Summary of the method: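 IC50 was derived by 4-parameter logistic fitting of percent-of-control data over a 10-point, 3-fold series (highest 10 μM, 2% DMSO). Reactions held 1.5 nM GST-Pim-2 (full-length, human), 4 μM [γ-33P]ATP and 1.0 μM PIM2tide for 60 min at 22 °C, pH 7.4; 33P-peptide captured on P81 filters.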

[3] = target: recombinant rat PIM-3 (Rattus norvegicus, UniProt O70444); experiment: PIM-3 Assay (as Example A); conditions: averaged IC50; 30 μM ATP, 3.75 μM PIM2tide, 0.5 nM PIM-3
Summary of the method: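 33P incorporation from 30 μM [γ-33P]ATP into 3.75 μM PIM2tide by 0.5 nM rat PIM-3, 60 min at 22 °C in pH 7.4 MOPS buffer, read by P81 filter capture and scintillation counting. Compounds tested in 3-fold dilutions up to 10 μM final, 2% DMSO; percent-of-control data fitted by 4-parameter logistic for IC50.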

Sequence of PIM-1 (P11309 whole entry, species assumed): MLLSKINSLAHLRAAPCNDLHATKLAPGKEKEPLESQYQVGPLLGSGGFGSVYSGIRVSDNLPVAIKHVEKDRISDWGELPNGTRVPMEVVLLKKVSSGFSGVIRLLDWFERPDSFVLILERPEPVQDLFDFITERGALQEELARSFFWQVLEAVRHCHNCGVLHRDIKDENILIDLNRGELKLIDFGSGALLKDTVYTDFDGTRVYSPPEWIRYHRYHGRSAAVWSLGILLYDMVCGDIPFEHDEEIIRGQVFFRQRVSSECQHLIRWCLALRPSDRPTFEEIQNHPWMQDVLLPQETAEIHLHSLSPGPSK

SMILES	IC50 [1] [nM]	IC50 [2] [nM]	IC50 [3] [nM]
COCCc1cc2nc(-c3nnc4ccc([C@H](N5CC[C@](C)(N)C5)C(F)(F)F)cn34)ccc2cc1F [Example 284, (S)-3-methyl-1-((S)-2,2,2-trifluoro-1-(3-(6-fluoro-7-(2-methoxyethyl)quinolin-2-yl)-[1,2,4]triazolo[4,3-a]pyridin-6-yl)ethyl)pyrrolidin-3-amine dihydrochloride]	0.28	50	0.4
CC(C)C(=O)OCCOc1cc2nc(-c3nnc4ccc([C@@H](N5CC[C@H](N)C5)C(F)(F)F)cn34)ccc2cc1F [Example 285, 2-(2-(6-((R)-1-((S)-3-aminopyrrolidin-1-yl)-2,2,2-trifluoroethyl)-[1,2,4]triazolo[4,3-a]pyridin-3-yl)-6-fluoroquinolin-7-yloxy)ethyl isobutyrate]	0.57	> 1000	8.6
CC(C)(C)C(=O)OCCOc1cc2nc(-c3nnc4ccc([C@@H](N5CC[C@H](N)C5)C(F)(F)F)cn34)ccc2cc1F [Example 286, 2-(2-(6-((R)-1-((S)-3-aminopyrrolidin-1-yl)-2,2,2-trifluoroethyl)-[1,2,4]triazolo[4,3-a]pyridin-3-yl)-6-fluoroquinolin-7-yloxy)ethyl pivalate]	1.38	> 1000	33
CO[C@@H](C)COc1ccc2ccc(-c3nnc4ccc([C@@H](N5CC[C@H](N)C5)C(F)(F)F)cn34)nc2c1 [Example 287, (S)-1-((R)-2,2,2-trifluoro-1-(3-(7-((S)-2-methoxypropoxy)quinolin-2-yl)-[1,2,4]triazolo[4,3-a]pyridin-6-yl)ethyl)pyrrolidin-3-amine dihydrochloride]	0.32	178	0.7
CCC(CC)C(=O)OCCOc1cc2nc(-c3nnc4ccc([C@@H](N5CC[C@H](N)C5)C(F)(F)F)cn34)ccc2cc1F [Example 288, 2-(2-(6-((R)-1-((S)-3-aminopyrrolidin-1-yl)-2,2,2-trifluoroethyl)-[1,2,4]triazolo[4,3-a]pyridin-3-yl)-6-fluoroquinolin-7-yloxy)ethyl 2-ethylbutanoate]	9.42	> 1000	56
CCC(C)(C)C(=O)OCCOc1cc2nc(-c3nnc4ccc([C@@H](N5CC[C@H](N)C5)C(F)(F)F)cn34)ccc2cc1F [Example 289, 2-(2-(6-((R)-1-((S)-3-aminopyrrolidin-1-yl)-2,2,2-trifluoroethyl)-[1,2,4]triazolo[4,3-a]pyridin-3-yl)-6-fluoroquinolin-7-yloxy)ethyl 2,2-dimethylbutanoate]	0.38	459	1.6
CC(C)[C@H](N)C(=O)OCCOc1cc2nc(-c3nnc4ccc([C@@H](N5CC[C@H](N)C5)C(F)(F)F)cn34)ccc2cc1F [Example 290, (S)-2-(2-(6-((R)-1-((S)-3-aminopyrrolidin-1-yl)-2,2,2-trifluoroethyl)-[1,2,4]triazolo[4,3-a]pyridin-3-yl)-6-fluoroquinolin-7-yloxy)ethyl 2-amino-3-methylbutanoate]	29.7	> 1000	> 100
CO[C@H](C)COc1cc(-c2nnc3ccc([C@@H](N4CC[C@H](N)C4)C(F)(F)F)cn23)nc2ccccc12 [Example 291, (S)-1-((R)-2,2,2-trifluoro-1-(3-(4-((R)-2-methoxypropoxy)quinolin-2-yl)-[1,2,4]triazolo[4,3-a]pyridin-6-yl)ethyl)pyrrolidin-3-amine formate]	0.19	82	0.5
CCOc1cc2nc(-c3nnc4ccc([C@H](N5CC[C@@H](N)C5)C(F)(F)F)cn34)ccc2cc1F [Example 292, (R)-1-((S)-1-(3-(7-ethoxy-6-fluoroquinolin-2-yl)-[1,2,4]triazolo[4,3-a]pyridin-6-yl)-2,2,2-trifluoroethyl)pyrrolidin-3-amine hydrochloride]	0.65	68	1.1
CCOc1cc2nc(-c3nnc4ccc([C@@H](N5CC[C@@](C)(N)C5)C(F)(F)F)cn34)ccc2cc1F [Example 293, (R)-1-((R)-1-(3-(7-ethoxy-6-fluoroquinolin-2-yl)-[1,2,4]triazolo[4,3-a]pyridin-6-yl)-2,2,2-trifluoroethyl)-3-methylpyrrolidin-3-amine hydrochloride]	0.4	468	1.1
CCOc1cc2nc(-c3nnc4ccc([C@H](N5CC[C@@](C)(N)C5)C(F)(F)F)cn34)ccc2cc1F [Example 294, (R)-1-((S)-1-(3-(7-ethoxy-6-fluoroquinolin-2-yl)-[1,2,4]triazolo[4,3-a]pyridin-6-yl)-2,2,2-trifluoroethyl)-3-methylpyrrolidin-3-amine hydrochloride]	0.53	94	0.7
CCOc1cc2nc(-c3nnc4ccc([C@H](N5CC[C@@H](CN)C5)C(F)(F)F)cn34)ccc2cc1F [Example 295, ((S)-1-((S)-1-(3-(7-ethoxy-6-fluoroquinolin-2-yl)-[1,2,4]triazolo[4,3-a]pyridin-6-yl)-2,2,2-trifluoroethyl)pyrrolidin-3-yl)methanamine hydrochloride]	2.55	522	12
CCOc1cc2nc(-c3nnc4ccc([C@H](N5CC[C@H](CN)C5)C(F)(F)F)cn34)ccc2cc1F [Example 296, ((R)-1-((S)-1-(3-(7-ethoxy-6-fluoroquinolin-2-yl)-[1,2,4]triazolo[4,3-a]pyridin-6-yl)-2,2,2-trifluoroethyl)pyrrolidin-3-yl)methanamine hydrochloride]	1.51	> 1000	12
CC(C)(O)COc1ccc2ccc(-c3nnc4ccc([C@H](N5CC[C@](C)(N)C5)C(F)(F)F)cn34)nc2c1 [Example 297, 1-(2-(6-((S)-1-((S)-3-amino-3-methylpyrrolidin-1-yl)-2,2,2-trifluoroethyl)-[1,2,4]triazolo[4,3-a]pyridin-3-yl)quinolin-7-yloxy)-2-methylpropan-2-ol dihydrochloride]	0.18	20	0.2
COCCOc1cc2nc(-c3nnc4ccc([C@H](N5CC[C@](C)(N)C5)C(F)(F)F)cn34)ccc2cc1F [Example 298, (S)-3-methyl-1-((S)-2,2,2-trifluoro-1-(3-(6-fluoro-7-(2-methoxyethoxy)quinolin-2-yl)-[1,2,4]triazolo[4,3-a]pyridin-6-yl)ethyl)pyrrolidin-3-amine dihydrochloride]	0.27	59	0.4
CCOc1cc2nc(-c3nnc4ccc([C@@H](N5C[C@@H](N)[C@H](OC)C5)C(F)(F)F)cn34)ccc2cc1F [Example 299, (3R,4R)-1-((R)-1-(3-(7-ethoxy-6-fluoroquinolin-2-yl)-[1,2,4]triazolo[4,3-a]pyridin-6-yl)-2,2,2-trifluoroethyl)-4-methoxypyrrolidin-3-amine dihydrochloride]	0.55	695	1.6
COCCc1ccc2ccc(-c3nnc4ccc([C@H](N5CC[C@](C)(N)C5)C(F)(F)F)cn34)nc2c1 [Example 300, (S)-3-methyl-1-((S)-2,2,2-trifluoro-1-(3-(7-(2-methoxyethyl)quinolin-2-yl)-[1,2,4]triazolo[4,3-a]pyridin-6-yl)ethyl)pyrrolidin-3-amine dihydrochloride]	0.36	64	0.4
CC(C)(O)COc1cc2nc(-c3nnc4ccc([C@H](N5CC[C@](C)(N)C5)C(F)(F)F)cn34)ccc2cc1F [Example 301, 1-(2-(6-((S)-1-((S)-3-amino-3-methylpyrrolidin-1-yl)-2,2,2-trifluoroethyl)-[1,2,4]triazolo[4,3-a]pyridin-3-yl)-6-fluoroquinolin-7-yloxy)-2-methylpropan-2-ol dihydrochloride]	0.2	14	0.2
CC(C)(O)COc1cc2nc(-c3nnc4ccc([C@@H](N5CC[C@H](N)C5)C(F)(F)F)cn34)ccc2cc1F [Example 302, 1-(2-(6-((R)-1-((S)-3-aminopyrrolidin-1-yl)-2,2,2-trifluoroethyl)-[1,2,4]triazolo[4,3-a]pyridin-3-yl)-6-fluoroquinolin-7-yloxy)-2-methylpropan-2-ol dihydrochloride]	0.22	69	0.3
COC[C@@H](C)Oc1cccc2ccc(-c3nnc4ccc([C@@H](N5CC[C@H](N(C)C)C5)C(F)(F)F)cn34)nc12 [Example 303, (S)—N,N-dimethyl-1-((R)-2,2,2-trifluoro-1-(3-(8-((R)-1-methoxypropan-2-yloxy)quinolin-2-yl)-[1,2,4]triazolo[4,3-a]pyridin-6-yl)ethyl)pyrrolidin-3-amine dihydrochloride]	1.33	242	5.85
